Several values for one entry are separate records, joined by “and”; a condition that tells them apart may be missing. Equal values may be shown once.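 Step 1: Grow cells in 96-well plates. Step 2: Expose to compound for 48 hours at 5 concentrations. Step 3: Interpolate endpoints linearly; if unreached, use highest concentration. GI50 = concentration required for 50% inhibition of growth. TGI is the concentration that stops growth completely.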
What was measured:
Assay in all cases: growth of human tumour cells (NCI), 48 h
[1] = test system: HCT-116 colon
[2] = test system: RPMI-8226 leukemia
[3] = test system: SR leukemia
[4] = test system: HCC-2998 colon
[5] = test system: SF-268 CNS
[6] = test system: MDA-MB-231 breast
[7] = test system: K-562 leukemia
[8] = test system: NCI-H522 lung
[9] = test system: A498 renal
[10] = test system: RXF 393 renal

| SMILES | GI50 [1] [µM] | TGI [1] [µM] | GI50 [2] [µM] | TGI [2] [µM] | GI50 [3] [µM] | TGI [3] | GI50 [4] [µM] | TGI [4] [µM] | GI50 [5] [µM] | TGI [5] [µM] | GI50 [6] [µM] | TGI [6] [µM] | GI50 [7] | TGI [7] [µM] | GI50 [8] | TGI [8] [µM] | GI50 [9] [µM] | TGI [9] [µM] | GI50 [10] | TGI [10] [µM] |
| --- | --- | --- | --- | --- | --- | --- | --- | --- | --- | --- | --- | --- | --- | --- | --- | --- | --- | --- | --- | --- |
| Cc1nc2sc(C(=O)Nc3cccc4c3OCCO4)c(N)c2cc1C(C)O (configuration not stated) | 5.57 | > 100 | 4.16 | > 100 | 1.18 | > 100 µM | 13.7 | > 100 | > 100 | > 100 | 36.3 | > 100 | 1.37 µM | > 100 | 2.5 µM | > 100 | 2.16 | 9.05 | 2.92 µM | > 100 |
| N#C/C(=C\c1ccccn1)c1nc2ccccc2o1 | 18.9 | 40.3 | 18.5 | 52.4 | 20 | 78.4 µM | 25.1 | 50.2 | 31.3 | > 100 | 27.9 | > 100 | 28.6 µM | > 100 | 16.6 µM | 37 | 30.4 | 99.2 | 28.3 µM | 82.2 |
| CC12CC(Br)(Br)C(=O)C3C1CCCC32 |  | 5.12 |  | 9.74 |  | 13.6 µM |  | 13.8 |  | 35.1 |  | 7.62 |  | 11.7 |  | 7.84 |  | 31.1 |  | 6.04 |
| O=c1oc2cc(O)ccc2cc1-c1nc2ccccc2o1 |  | > 100 |  | 75.8 |  | > 100 µM |  | > 100 |  | > 100 |  | > 100 |  | > 100 |  | 56.1 |  | 84.7 |  | 35.5 |
| COC(=O)c1cc2c3cc(Cl)ccc3[nH]c2c2ncccc12 | > 100 | > 100 | > 100 | > 100 | > 100 | > 100 µM | > 100 | > 100 | > 100 | > 100 | > 100 | > 100 | > 100 µM | > 100 | > 100 µM | > 100 | > 100 | > 100 | > 100 µM | > 100 |
| Nc1ncnc2occ(-c3ccc(NC(=O)Nc4cccc(C(F)(F)F)c4)cc3)c12 | 2.98 | 16 | 4.86 | 15.3 | 0.957 | 8.59 µM | 6.11 | 14.3 | 3.54 | 9.83 | 5.8 | 16.4 | 1.3 µM | 25 | 4.18 µM | 8.92 | 0.422 | 3.22 | 1.71 µM | 5.39 |
| O=C(Nc1cccc2[nH]c(C(F)(F)F)nc12)c1ccc(Br)cc1F | 3.16 | 11.4 | 2.44 | 7.9 | 3.51 | 16.1 µM | 4.8 | 16 | 4.17 | 21.4 | 2.17 | 6.19 | 3.37 µM | 39.2 | 2.55 µM | 8.26 | 2 | 5.57 | 3.1 µM | 9.12 |
| COc1cccc2c1C(=O)c1c(O)c3c(c(O)c1C2=O)C[C@@](O)(C(=O)CO)C[C@@H]3OC1CC2C(OCN2CN2COC3C(C)OC(O[C@H]4C[C@](O)(C(=O)CO)Cc5c(O)c6c(c(O)c54)C(=O)c4c(OC)cccc4C6=O)CC32)C(C)O1 (some centres not stated) | 0.00564 | > 0.39 | 0.0017 | 0.0108 | 0.000289 | 0.00476 µM | 0.0138 | 0.0441 | 0.00258 | 0.0469 | 0.0156 | 0.072 | 0.00402 µM |  | 0.00638 µM | 0.0238 | 0.0196 | 0.0821 | 0.000978 µM | 0.0101 |
| O=[N+]([O-])c1cc2c(ccc3ccccc32)o1 | 0.215 | 0.855 | 1.13 | 6.81 | 0.346 | > 39.9 µM | 0.252 | 0.823 | 0.455 | 9.73 | 0.442 | 2.89 | 0.376 µM | 9.01 | 0.563 µM | 2.18 | 0.127 | 0.277 | 0.311 µM | 0.789 |
| O=C1C2C3C=CC(C2C(=O)N1CN1CCOCC1)C1C2C(=O)N(CN4CCOCC4)C(=O)C2C31 (configuration not stated) |  | > 62.8 |  | > 71.9 |  | > 100 µM |  | > 61.2 |  | > 64 |  | > 100 |  | > 79.3 |  | > 55.2 |  | > 100 |  | > 65.2 |
| CCOC(=O)c1ccc(N[C@@H]2c3cc4c(cc3C(c3cc(OC)c(O)c(OC)c3)[C@H]3C(=O)OCC32)OCO4)cc1 (some centres not stated) | 0.835 | 10.5 |  | 7.08 | 0.0303 | 0.32 µM and 0.742 µM | 0.868 | 3.69 | 0.394 | 15.7 |  | 4.76 | 0.662 µM and 1.44 µM | 27.2 | 0.395 µM and 1.28 µM | 4.98 | 0.332 | 1.92 | 0.426 µM and 1.95 µM | 5.93 |
| O=NN(CC(=O)NNc1ccccc1)CC(=O)NNc1ccccc1 | > 100 | > 100 | 12.4 | > 100 | > 25.6 | > 100 µM | 4.89 | > 100 | 22.1 | > 100 | 3.54 | > 100 | 0.579 µM | > 100 | 1.27 µM | > 100 | > 100 | > 100 | > 100 µM | > 100 |

Source: PubChem BioAssay (NCI)
